Assay [1] relates to platelet aggregation in whole rat blood induced with collagen. Description: In vitro whole rat blood aggregation induced with collagen (Multiplate impedance aggregometry). As to conditions: for Effect on collagen-induced platelet aggregation (in words): screened at 10 µM and 100 µM, whole rat blood (Figure 1); for Effect on collagen-induced platelet aggregation (in words) / Reduction of collagen-induced platelet aggregation: collagen 1.6 µg/mL; for IC50: Collagen [1.6 µg/mL], concentration inhibiting aggregation of whole rat blood in vitro by 50%; for Reduction of collagen-induced platelet aggregation: 100 µM compound, whole rat blood, screening (Figure 1). It counts as cell-based. As to the method:
(§1) To evaluate antiplatelet activities of the test compounds, freshly isolated rat whole blood was incubated with compound or vehicle, and the aggregation responses were assessed with a whole blood aggregometer by measuring impedance changes. Platelet aggregation was induced with collagen. First, compounds were screened for anti-aggregation effects at concentration of 10 µM and 100 µM (Figure 1). […] In vitro aggregation tests were conducted using freshly collected whole rat blood with a Multiplate platelet function analyzer (Roche Diagnostic, Mannheim, Germany), the five-channel aggregometer based on measurements of electric impedance, according to previous procedures. Upon activation, platelets adhere and progressively aggregate on a duplicate metal sensor in the analyzer test cuvette. This leads to a change in resistance, which is proportional to the number of platelets adhering to the electrodes. Blood was drawn from the carotid of rats with hirudin blood tubes (S-Monovette, Hirudin, Sarstedt, Germany). Then, 300 μL of hirudin anticoagulated blood was mixed with 300 μL prewarmed isotonic saline solution containing the studied compound or vehicle (DMSO 0.1%) and preincubated for 3 min at 37 °C with continuous stirring. The agonists (collagen, ADP) were diluted using deionized water. Aggregation was induced by adding collagen (final concentration 1.6 µg/mL) or ADP (final concentration 6.5 µM). […] Activated platelet function was recorded for 6 min. Multiplate software v. V2.05 was used to analyze the area under the curve (AUC) of the clotting process for each measurement and calculate the mean values.

For assay [2], the target named is T1, human recombinant PDE2A (Homo sapiens, UniProt O00408).
T1 construct: purchased SignalChem
T1 sequence (O00408 whole entry): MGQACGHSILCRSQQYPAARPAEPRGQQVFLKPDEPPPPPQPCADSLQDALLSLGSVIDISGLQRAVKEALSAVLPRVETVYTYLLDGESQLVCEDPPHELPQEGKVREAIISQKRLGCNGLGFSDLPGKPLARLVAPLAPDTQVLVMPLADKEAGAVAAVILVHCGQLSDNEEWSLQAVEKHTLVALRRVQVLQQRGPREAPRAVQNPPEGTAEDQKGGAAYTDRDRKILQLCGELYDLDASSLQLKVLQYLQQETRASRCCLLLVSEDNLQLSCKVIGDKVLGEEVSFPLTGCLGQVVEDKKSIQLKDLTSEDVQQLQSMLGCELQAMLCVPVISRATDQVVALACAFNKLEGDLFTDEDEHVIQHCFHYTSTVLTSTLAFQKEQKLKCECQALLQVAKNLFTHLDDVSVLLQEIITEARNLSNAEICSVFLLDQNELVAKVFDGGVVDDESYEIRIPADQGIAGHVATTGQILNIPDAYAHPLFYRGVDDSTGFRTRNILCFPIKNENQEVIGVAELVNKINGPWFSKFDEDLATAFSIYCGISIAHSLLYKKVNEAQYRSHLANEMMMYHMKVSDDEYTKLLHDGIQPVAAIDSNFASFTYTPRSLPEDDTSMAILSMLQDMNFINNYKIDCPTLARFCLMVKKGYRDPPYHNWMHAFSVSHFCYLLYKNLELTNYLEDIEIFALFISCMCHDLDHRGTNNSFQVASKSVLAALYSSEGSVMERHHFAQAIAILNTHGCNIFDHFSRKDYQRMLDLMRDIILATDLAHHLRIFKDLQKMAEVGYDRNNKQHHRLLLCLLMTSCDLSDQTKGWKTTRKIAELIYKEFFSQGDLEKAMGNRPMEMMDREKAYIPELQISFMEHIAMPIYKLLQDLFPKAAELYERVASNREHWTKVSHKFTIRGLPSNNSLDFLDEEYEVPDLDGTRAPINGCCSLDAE
As to the kind of experiment: PDE-Glo activity inhibition test, PDE2A. It counts as biochemical. Conditions: cGMP substrate, read-out: IC50 (CV%) PDE2A.

A further assay addresses T2, human recombinant PDE3A (Homo sapiens, UniProt Q14432).
T2 construct: purchased SignalChem
As to the kind of experiment: PDE-Glo activity inhibition test, PDE3A. As to conditions: for IC50: human recombinant PDE3A, cAMP substrate, read-out: IC50 (CV%) PDE3A. It counts as biochemical.

Assay [3] concerns the target T3, human recombinant PDE5A (Homo sapiens, UniProt O76074).
T3 construct: purchased SignalChem
Description: PDE-Glo activity inhibition test, PDE5A. It counts as biochemical. As to conditions: cGMP substrate, read-out: IC50 (CV%) PDE5A.

Assay [4] has as its system lipid peroxidation in rat brain homogenate. Description: In vitro lipid peroxidation (MDA/TBARS test). The protocol:
The lipid peroxidation was measured by the formation of thiobarbituric acid reactive substances (TBARS) in rat brain homogenate, which was made in 0.9% NaCl containing 10 mg tissue per mL [60]. Briefly, rat brain homogenates (1 mL) were incubated at 37 °C for 5 min with 10 µL of a test compound or vehicle. Lipid peroxidation was initiated with the addition of 50 µL of 0.5 mmol/L FeCl2 and 50 µL of 2 mmol/L ascorbic acid. After 30 min of incubation, the reaction was stopped by adding 0.1 mL of 0.2% butylhydroxytoluene. Thiobarbituric acid reagent was then added, and the mixture was heated for 15 min in a boiling water bath. The TBARS was extracted using n-butanol and measured at 532 nm. The amount of TBARS was quantified using a standard curve of malondialdehyde (1,1,3,3-tetraethoxypropane was used as standard).
The compound used to compare the results was carvedilol. Its activity was tested in the concentration range of 10–3000 μM (Figure 8). The reference was the maximum activity of carvedilol at the highest concentration (100%). Test compounds were assayed at concentrations of 100 and 1000 µM. The obtained results were then compared to the activity of the reference compound at identical concentrations (1000 µM).

The next assay addresses hA1R. As to conditions: human A1 receptor; read-out: Ki ± SEM hA1R vs. [3H]CCPA; cited from earlier work.
For another assay, the target named is hA2BR. Conditions: human A2B receptor; read-out: Ki ± SEM hA2BR vs. [3H]PSB-603; cited from earlier work.
The next assay concerns the target hA3R. Conditions: human A3 receptor; read-out: Ki ± SEM hA3R vs. [3H]PSB-11; cited from earlier work.
The target of a further assay is hA2AR. As to conditions: cited from earlier work.
The test system of assay [5] is platelet aggregation in whole rat blood induced by ADP. As to the kind of experiment: In vitro whole rat blood aggregation induced with ADP (Multiplate impedance aggregometry). It counts as cell-based. Conditions: ADP [6.5 μM], concentration inhibiting aggregation of whole rat blood in vitro by 50%. As to the method:
as §1, with “In further experiments,” for “To evaluate antiplatelet activities of the test compounds, freshly isolated rat whole blood was incubated with compound or vehicle, and the aggregation responses were assessed with a whole blood aggregometer by measuring impedance changes. Platelet”, “ADP. In this model of aggregation, we tested the selected” for “collagen. First,”, “as well as IBMX as a positive control.” for “were screened for anti-aggregation effects at concentration of 10 µM and 100 µM (Figure 1).”

Assay [6] concerns the target T1, human recombinant PDE2A. Set-up: method as in PMID 31705904. As to conditions: cited from earlier work.
In assay [7] the target is T3, human recombinant PDE5A. On the set-up: method as in PMID 31705904. As to conditions: cited from earlier work.

Like-named read-outs stand apart in the source and are kept apart here.

T2 sequence (Q14432 whole entry): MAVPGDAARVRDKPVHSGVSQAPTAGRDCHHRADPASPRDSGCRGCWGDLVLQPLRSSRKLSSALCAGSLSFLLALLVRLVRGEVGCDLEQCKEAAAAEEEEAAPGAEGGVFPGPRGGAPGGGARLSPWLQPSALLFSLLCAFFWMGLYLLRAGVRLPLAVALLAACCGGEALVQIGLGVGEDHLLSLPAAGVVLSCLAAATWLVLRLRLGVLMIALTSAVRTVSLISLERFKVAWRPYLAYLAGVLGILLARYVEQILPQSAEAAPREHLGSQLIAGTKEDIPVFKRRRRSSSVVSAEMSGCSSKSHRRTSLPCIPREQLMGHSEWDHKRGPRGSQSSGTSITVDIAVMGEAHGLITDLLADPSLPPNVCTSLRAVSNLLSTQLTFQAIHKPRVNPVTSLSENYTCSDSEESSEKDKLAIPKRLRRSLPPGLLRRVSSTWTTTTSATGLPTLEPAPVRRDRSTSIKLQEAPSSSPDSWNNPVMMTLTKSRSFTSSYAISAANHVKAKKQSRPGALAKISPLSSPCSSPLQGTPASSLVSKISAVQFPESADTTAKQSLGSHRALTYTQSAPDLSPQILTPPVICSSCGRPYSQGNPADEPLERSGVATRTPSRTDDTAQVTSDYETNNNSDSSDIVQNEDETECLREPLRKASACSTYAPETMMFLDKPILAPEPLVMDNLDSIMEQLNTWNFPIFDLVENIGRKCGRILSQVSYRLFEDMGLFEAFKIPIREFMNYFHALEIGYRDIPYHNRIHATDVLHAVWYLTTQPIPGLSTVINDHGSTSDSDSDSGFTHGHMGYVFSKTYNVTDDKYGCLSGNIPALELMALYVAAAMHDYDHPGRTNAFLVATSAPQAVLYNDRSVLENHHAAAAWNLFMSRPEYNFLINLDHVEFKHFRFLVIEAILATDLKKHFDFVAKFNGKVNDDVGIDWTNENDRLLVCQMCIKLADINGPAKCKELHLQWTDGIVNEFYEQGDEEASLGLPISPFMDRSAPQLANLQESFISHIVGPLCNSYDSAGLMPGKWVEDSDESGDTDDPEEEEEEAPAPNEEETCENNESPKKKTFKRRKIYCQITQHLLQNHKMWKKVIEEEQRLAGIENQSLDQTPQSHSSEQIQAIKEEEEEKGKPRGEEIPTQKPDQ

Turning to “3,7-dimethyl-8-(3-phenylpropoxy)-1-(prop-2-yn-1-yl)--purine-2,6-dione [TB-46]”, the “Effect on collagen-induced platelet aggregation (in words)” value in assay [1] is “did not affect platelet aggregation”. In addition, the IC50 on human recombinant PDE2A [2] was found to be 9.85 µM; at human recombinant PDE3A, 0.58 µM; at human recombinant PDE5A [3], 68.6 µM. Further, the “Antioxidant activity at a concentration 10 times lower (in words)” value in assay [4] (concentration 10 times lower than 1000 µM) was “practically disappeared”. For the same molecule, the Ki was 0.158 ± 0.012 µM on hA1R, 0.472 ± 0.174 µM at hA2BR, greater than 1 µM at hA3R and 0.0191 ± 0.0023 µM on hA2AR.
On to `CCCCCC[C@@H]([C@@H](C)O)n1cnc2c(N)ncnc21` (racemic) [EHNA, erythro-9-(2-hydroxy-3-nonyl)adenine, reference compound], for which the IC50 on human recombinant PDE2A [2] was 8.22 µM.
With `COc1ccccc1OCCNCC(O)COc1cccc2[nH]c3ccccc3c12` (stereo not shown) [Carvedilol, carvedilol, reference compound], in [4] (carvedilol tested at 10–3000 μM, Figure 8, read-out: EC50 antioxidant action (lipid peroxidation)), the EC50 was determined as 68.8 µM.
Take `O=C1CCc2cc(OCCCCc3nnnn3C3CCCCC3)ccc2N1` [Cilostazol, cilostazol, reference compound]: on human recombinant PDE3A, the half-maximal inhibitory concentration (IC50) worked out at 0.0545 µM.
Regarding `CC(C)Cn1c(=O)n(C)c(=O)c2[nH]cnc21` [IBMX, 1-methyl-3-isobutylxanthine, reference compound], the concentration for half-maximal inhibition (IC50) was 98.8 ± 29.8 µM in assay [1]; roughly 100 µM in assay [1] (Rattus norvegicus, Platelet); 18.5 ± 7.3 µM in assay [5]; 9.22 µM on human recombinant PDE2A [6]; 45.1 µM on human recombinant PDE5A [7].
Turning to `CC1CCC(N2CCCn3c2nc2c3c(=O)n(C)c(=O)n2C)CC1` (stereo not shown) [KD-64, 1,3-dimethyl-9-(4-methylcyclohexyl)-pyrimido [2,1-f] purine-2,4-dione], the “Effect on collagen-induced platelet aggregation (in words)” value in [1] was “did not affect platelet aggregation”. Besides, the IC50 was 27 µM at human recombinant PDE2A [2], 10.3 µM on human recombinant PDE3A and greater than 100 µM at human recombinant PDE5A [3]. The Ki at hA1R is greater than 1 µM; at hA2BR, greater than 1 µM; on hA3R, greater than 1 µM; at hA2AR, 0.24 µM.
Take `CCn1c(=O)c2c(nc(NCc3c(Cl)ccc(OC)c3F)n2C)n(C)c1=O` [MZ-1497, 8-((6-chloro-2-fluoro-3-methoxybenzyl)amino)-1-ethyl-3,7-dimethyl-purine-2,6-dione]: the “Effect on collagen-induced platelet aggregation (in words)” value in [1] is on record as “did not affect platelet aggregation”. For the same molecule, at human recombinant PDE5A [3], the 50% inhibitory concentration (IC50) was greater than 100 µM. The Ki on hA1R is greater than 1 µM; on hA2BR it was greater than 1 µM; on hA3R, greater than 1 µM; on hA2AR it was 0.0685 ± 0.0155 µM.
For `CCCn1c(=O)[nH]c2nc(-c3ccc(S(=O)(=O)N4CCN(c5ccc(Cl)cc5)CC4)cc3)[nH]c2c1=O` [PSB-603, 1-propyl-8-(4-((4-(4-chlorophenyl)piperazin-1-yl)sulfonyl)phenyl)-1H-purine-2,6(3H,7H)-dione], in assay [1], the “Reduction of collagen-induced platelet aggregation” value was determined as 50.4%. In addition, the “Prevention of collagen-induced platelet aggregation” value in assay [1] (100 µM, highest tested concentration, concentration series (Figure 2)) came to 54.12%. Further, the IC50 in assay [1] was 98.6 ± 27 µM; in assay [1] (Rattus norvegicus, Platelet), roughly 100 µM; in [5] it was 82.9 ± 17 µM; at human recombinant PDE2A [2], 50.1 µM; at human recombinant PDE3A it was greater than 100 µM; at human recombinant PDE5A [3], 39.7 µM. Further, in assay [1] (concentrations below 100 µM, collagen 1.6 µg/mL (Figure 2)), the “Effect on platelet activity at lower concentrations (in words)” value is “did not markedly affect platelet activity”. For the same molecule, on human recombinant PDE3A (in the concentrations tested), the “Effect against PDE3A activity (in words)” value is “did not display any detectable effects”. In addition, the Ki is greater than 1 µM at hA1R, 0.000553 ± 0.000103 µM on hA2BR, greater than 1 µM on hA3R and greater than 1 µM at hA2AR.
On to `CCCCn1c(=O)[nH]c2nc(-c3ccc(S(=O)(=O)N4CCN(c5ccc(Cl)cc5)CC4)cc3)[nH]c2c1=O` [PSB-23066, 1-butyl-8-(4-((4-(4-chlorophenyl)piperazin-1-yl)sulfonyl)phenyl)-1H-purine-2,6(3H,7H)-dione], for which the “Effect on collagen-induced platelet aggregation (in words)” value in assay [1] is reported as “did not affect platelet aggregation”. The concentration for half-maximal inhibition (IC50) on human recombinant PDE5A [3] amounted to 45.8 µM. Further, the Ki on hA1R was greater than 1 µM; on hA2BR, 0.000401 ± 0.000136 µM; on hA3R, greater than 1 µM; at hA2AR, greater than 1 µM.
Regarding `C#CCn1c(=O)c2c(nc(OCc3ccccc3Br)n2C)n(C)c1=O` [TB-42], the “Reduction of collagen-induced platelet aggregation” value in [1] stood at 56.8%. For the same molecule, the IC50 is 69.3 ± 0.7 µM in assay [1] (Platelet), 58.6 ± 35.6 µM in [5] and 64.5 µM at human recombinant PDE5A [3]. The Ki at hA1R was 0.357 ± 0.049 µM; at hA2BR, greater than 1 µM; on hA2AR it was 0.059 ± 0.0102 µM.

A word on the IC50: it is the point on the concentration scale where inhibition reaches its midpoint. Usually Ki stands for the dissociation constant of the complex between target and ligand, obtained from inhibition or displacement. A word on the EC50: it is the concentration needed to bring the measured effect to its halfway point.

The values are drawn from article PMC10487961, “Antiplatelet Effects of Selected Xanthine-Based Adenosine A2A and A2B Receptor Antagonists Determined in Rat Blood” (International Journal of Molecular Sciences, 2023).
